Reference: ChEMBL document CHEMBL4152322, “Dihydropyrimidinone/1,2,3-triazole hybrid molecules: Synthesis and anti-varicella-zoster virus (VZV) evaluation” (Eur J Med Chem, 2018)
Active and inactive are the calls of the source. No cut-off for these calls is given here.

Columns and labels:
Human alphaherpesvirus 3 [1] = experiment: Antiviral activity against thymidine kinase deficient Varicella-Zoster virus 07-1 infected in human HEL cells assessed as reduction in plaque formation after 5 days; type: functional, organism-based; conditions: Human alphaherpesvirus 3, 07-1, HEL, 120 h
Human betaherpesvirus 5 [2] = experiment: Antiviral activity against HCMV Davis infected in human HEL cells assessed as reduction in virus-induced cytopathic effect after 7 days; type: functional, organism-based
Human alphaherpesvirus 3 [3] = experiment: Antiviral activity against thymidine kinase expressing Varicella-Zoster virus Oka infected in human HEL cells assessed as reduction in plaque formation after 5 days; type: functional, organism-based; conditions: Human alphaherpesvirus 3, strain Oka vaccine, 120 h
Human betaherpesvirus 5 [4] = experiment: Antiviral activity against HCMV AD169 infected in human HEL cells assessed as reduction in virus-induced cytopathic effect after 7 days; type: functional, organism-based
[5] = Cytostatic activity against human HEL cells after 3 days by coulter counter method; type: ADME, cell-based

Structure (SMILES)	EC50 (Human alphaherpesvirus 3 [1])	Activity (Human betaherpesvirus 5 [2])	EC50 (Human alphaherpesvirus 3 [3])	Activity (Human betaherpesvirus 5 [4])	CC50 at 72 h [5]
CC(=O)C1=C(C)N(Cc2cn(Cc3ccc([N+](=O)[O-])cc3)nn2)C(=O)N(Cc2cn(Cc3ccc([N+](=O)[O-])cc3)nn2)C1c1ccc(OCc2cn(Cc3ccc([N+](=O)[O-])cc3)nn2)cc1 (stereo unspecified)	> 20 µM	inactive	69.9 µM	inactive	
COc1ccc(OC)c(C2C(C(C)=O)=C(C)N(Cc3cn(Cc4ccccc4)nn3)C(=O)N2Cc2cn(Cc3ccccc3)nn2)c1 (stereo unspecified)	8.87 µM	inactive	9.85 µM	inactive	> 100 µM
Nc1nc2c(ncn2COCCO)c(=O)[nH]1 [ACYCLOVIR]	133 µM		2.35 µM		> 440 µM
COc1ccc(OC)c(C2NC(=O)N(Cc3cn(Cc4ccc([N+](=O)[O-])cc4)nn3)C(C)=C2C(C)=O)c1 (stereo unspecified)	48.1 µM	inactive	44.7 µM	inactive	
COc1ccc(OC)c(C2NC(=O)N(Cc3cn(Cc4ccccc4)nn3)C(C)=C2C(C)=O)c1 (stereo unspecified)	50.2 µM	inactive	48.9 µM	inactive	
CC(=O)C1=C(C)N(Cc2cn(Cc3ccc([N+](=O)[O-])cc3)nn2)C(=O)NC1c1ccccc1 (stereo unspecified)	42.6 µM	inactive	48.9 µM	inactive	
CC(=O)C1=C(C)N(Cc2cn(Cc3ccccc3)nn2)C(=O)NC1c1ccc(OCc2cn(Cc3ccccc3)nn2)cc1 (stereo unspecified)	10.8 µM	inactive	11.3 µM	inactive	> 100 µM
CC(=O)C1=C(C)N(Cc2cn(Cc3ccccc3)nn2)C(=O)N(Cc2cn(Cc3ccccc3)nn2)C1c1ccccc1 (stereo unspecified)	6.08 µM	inactive	8.38 µM	inactive	7.02 µM
CC(=O)C1=C(C)N(Cc2cn(Cc3ccccc3)nn2)C(=O)N(Cc2cn(Cc3ccccc3)nn2)C1c1ccc(N(C)C)cc1 (stereo unspecified)	17 µM	inactive	23.2 µM	inactive	
CC(=O)C1=C(C)N(Cc2cn(Cc3ccc([N+](=O)[O-])cc3)nn2)C(=O)N(Cc2cn(Cc3ccc([N+](=O)[O-])cc3)nn2)C1c1ccccc1 (stereo unspecified)	7.85 µM	inactive	3.62 µM	inactive	> 100 µM
O=c1[nH]c(=O)n([C@H]2C[C@H](O)[C@@H](CO)O2)cc1/C=C/Br [BRIVUDINE]	104 µM		0.025 µM		> 300 µM
